The values that follow are results of earlier work, collected in US20070213354A1, “Compositions and Methods for the Treatment of Multiple Sclerosis” (AmpliMed Corporation, priority 2006, published 2007).

Data set [1] concerns neonatal rat myocytes. The settings on record: 1 hour drug concentration that reduces ATP/protein ratio to 50% of untreated control myocytes; read-out: IC50 Cardiotox; cited from earlier work.
In data set [2] the test system is L1210 resistant. The settings on record: murine leukemia L1210 resistant, P-glycoprotein producing; MTT, continuous exposure; cited from earlier work.
The test system of data set [3] is L1210 sensitive. As to conditions: murine leukemia L1210 sensitive to standard cytotoxic agents; MTT, continuous exposure; cited from earlier work.

For `CN(C)CCN1C(=O)c2cccc3cc4ccc(N)cc4c(c23)C1=O` [*10-NH2], the IC50 in data set [1] is 943 nM; in data set [2], 3 nM; in data set [3], 3 nM.
Take `CC(=O)Nc1ccc2cc3cccc4c3c(c2c1)C(=O)N(CCN(C)C)C4=O` [*10-NHCOCH3]: the IC50 was 7790 nM in data set [1], 219 nM in data set [2] and 49 nM in data set [3].
`CN(C)CCCN1C(=O)c2cccc3cc4ccccc4c(c23)C1=O` [2-(CH2)3N(CH3)2]: the IC50 in data set [1] was 11400 nM; in data set [2], 82 nM; in data set [3], 54 nM.
For `CCN1CCCC1CN1C(=O)c2cccc3cc4ccccc4c(c23)C1=O` (centres unmarked) [2-CH2-(1-ethyl-2-pyrrolidinyl)], the IC50 was 15200 nM in data set [1], 55 nM in data set [2] and 36 nM in data set [3].
Consider `O=C1c2cccc3cc4ccccc4c(c23)C(=O)N1CCc1ccccn1` [2-(CH2)2-2-pyridyl], for which the figures for the IC50 in data set [1], in data set [2] and in data set [3] were over 25000 nM, 15500 nM and 6440 nM, respectively.
In the case of `CN(C)CCN1C(=O)c2ccc(Cl)c3cc4ccccc4c(c23)C1=O` [*6-Cl], the IC50 in data set [1] is 4110 nM; in data set [2], 64 nM; in data set [3], 77 nM.
`CN(C)CCN1C(=O)c2cccc3c(O)c4ccccc4c(c23)C1=O` [*7-OH]: the results for the IC50 in data set [1], in data set [2] and in data set [3] were over 24100 nM, 212 nM and 472 nM, respectively.
Take `CN(C)CCN1C(=O)c2ccc(O)c3cc4ccccc4c(c23)C1=O` [*6-OH]: the IC50 in data set [1] is over 24100 nM; in data set [2] it was 145 nM; in data set [3], 217 nM.
For `CC(=O)Nc1cccc2cc3cccc4c3c(c12)C(=O)N(CCN(C)C)C4=O` [*11-NHCOCH3], the 50% inhibitory concentration (IC50) in data set [1] is over 22500 nM; in data set [2], 2430 nM; in data set [3] it was 243 nM.
Regarding `CN(C)CCN1C(=O)c2c(N)ccc3cc4ccccc4c(c23)C1=O` [*4-NH2], the 50% inhibitory concentration (IC50) in data set [1] was 434 nM; in data set [2], 8 nM; in data set [3], 5 nM.
Regarding `CN(C)CCN1C(=O)c2cccc3c(N)c4ccccc4c(c23)C1=O` [*7-NH2], the IC50 in data set [1] was 1950 nM; in data set [2], 7 nM; in data set [3] it was 5 nM.
As for `CN(C)CCNc1ccc2c3c(c4cccc(Cl)c4cc13)C(=O)N(CCN(C)C)C2=O` [*6-NH(CH2)2N(CH3)2; 8-Cl], the IC50 in data set [1] is 3230 nM; in data set [2], 7 nM; in data set [3], 3 nM.
On to `COc1ccc2cc3cccc4c3c(c2c1)C(=O)N(CCN(C)C)C4=O` [*10-OCH3], for which the results for the IC50 in data set [1], in data set [2] and in data set [3] were 9100 nM, 52 nM and 21 nM, respectively.
Turning to `CN(C)CCN1C(=O)c2cccc3cc4cc(Cl)ccc4c(c23)C1=O` [*9-Cl], the IC50 was 1540 nM in data set [1], 8 nM in data set [2] and 8 nM in data set [3].
Consider `CN(C)CCOc1ccc2c3c(c4ccccc4cc13)C(=O)N(CCN(C)C)C2=O` [*6-O(CH2)2N(CH3)2], for which the results for the IC50 in data set [1], in data set [2] and in data set [3] were 5440 nM, 1 nM and 0.2 nM, respectively.
On to `CN(C)CCNc1ccc2cc3ccccc3c3c2c1C(=O)N(CCN(C)C)C3=O` [*4-NH(CH2)2N(CH3)2], for which the IC50 was 734 nM in data set [1], 245 nM in data set [2] and 210 nM in data set [3].
In the case of `O=C1c2cccc3cc4ccccc4c(c23)C(=O)N1CCN1CCNCC1` [2-(CH2)2—N-piperazinyl], the IC50 in data set [1] is 6710 nM; in data set [2], 463 nM; in data set [3], 174 nM.
For the molecule `CNCCN1C(=O)c2ccc(Cl)c3cc4ccccc4c(c23)C1=O` [2-(CH2)2NHCH3; 6-Cl], the half-maximal inhibitory concentration (IC50) in data set [1] was 7600 nM; in data set [2], 53 nM; in data set [3], 53 nM.
In the case of `CSc1ccc2c3c(c4ccccc4cc13)C(=O)N(CCN(C)C)C2=O` [*6-SCH3], the results for the IC50 in data set [1], in data set [2] and in data set [3] were 3000 nM, 0.5 nM and 0.4 nM, respectively.
Regarding `CN(C)CCNc1ccc2c3c(c4ccccc4cc13)C(=O)N(CCN(C)C)C2=O` [*6-NH(CH2)2N(CH3)2], the figures for the 50% inhibitory concentration (IC50) in data set [1], in data set [2] and in data set [3] were 4190 nM, 0.04 nM and 0.04 nM, respectively.
As to `CCCOc1c2ccccc2c2c3c(cccc13)C(=O)N(CCN(C)C)C2=O` [*6-OC3H7], the results for the half-maximal inhibitory concentration (IC50) in data set [1], in data set [2] and in data set [3] were 7760 nM, 49 nM and 17 nM, respectively.
For the molecule `CNCCN1C(=O)c2cccc3cc4ccccc4c(c23)C1=O` [2-(CH2)2NHCH3], the half-maximal inhibitory concentration (IC50) in data set [1] is 7060 nM; in data set [2] it was 21 nM; in data set [3], 10 nM.
Take `CN(C)CCN1C(=O)c2cccc3cc4ccc(F)cc4c(c23)C1=O` [*10-F]: the IC50 in data set [1] was 456 nM; in data set [3], 8 nM.
`COc1cccc2c3c4c(cccc4cc12)C(=O)N(CCN(C)C)C3=O` [*8-OCH3]: the IC50 in data set [1] was 806 nM; in data set [2], 18 nM; in data set [3] it was 13 nM.
On to `O=C1c2cccc3cc4ccccc4c(c23)C(=O)N1c1cccnc1` [2-(3-pyridyl)], for which the IC50 in data set [1] was over 25000 nM; in data set [2], 554 nM; in data set [3] it was 544 nM.
For `CCSc1ccc2c3c(c4ccccc4cc13)C(=O)N(CCN(C)C)C2=O` [*6-SC2H5], the half-maximal inhibitory concentration (IC50) in data set [1] is 7740 nM; in data set [2] it was 5 nM; in data set [3] it was 6 nM.
With `CN(C)CCN1C(=O)c2cccc3cc4cc(N)ccc4c(c23)C1=O` [*9-NH2], the IC50 in data set [1] was 813 nM; in data set [2], 16 nM; in data set [3] it was 3 nM.
As to `CCN1CCCC(N2C(=O)c3cccc4cc5ccccc5c(c34)C2=O)C1` (centres unmarked) [2-(1-ethyl-3-piperidinyl)], the values for the IC50 in data set [1], in data set [2] and in data set [3] were 8760 nM, 609 nM and 635 nM, respectively.
Take `CN(C)CCN1C(=O)c2cccc3cc4cccc([N+](=O)[O-])c4c(c23)C1=O` [*11-NO2]: the results for the IC50 in data set [1], in data set [2] and in data set [3] were 8650 nM, 50 nM and 23 nM, respectively.
For the molecule `CN(C)CCN1C(=O)c2ccc(S(C)(=O)=O)c3cc4ccccc4c(c23)C1=O` [*6-SO2CH3], the IC50 in data set [1] is 2320 nM; in data set [2], 35 nM; in data set [3] it was 35 nM.
Turning to `CN(C)CCN1C(=O)c2cccc3cc4ccccc4c(c23)C1=O` [2-(CH2)2N(CH3)2], the IC50 in data set [1] was 1980 nM; in data set [2], 7 nM; in data set [3], 7 nM.
As for `O=C1c2cccc3cc4ccccc4c(c23)C(=O)N1CCNCCO` [2-(CH2)2NH(CH2)2OH], the IC50 was 943 nM in data set [1], 41 nM in data set [2] and 18 nM in data set [3].
For `CN(C)CCN1C(=O)c2c(Cl)ccc3cc4ccccc4c(c23)C1=O` [*4-Cl], the half-inhibitory concentration (IC50) in data set [1] is 900 nM; in data set [2], 15 nM; in data set [3], 10 nM.
As to `O=C1c2cccc3cc4ccccc4c(c23)C(=O)N1CCN1CCOCC1` [2-(CH2)2—N-morpholinyl], the IC50 is over 25000 nM in data set [1], 512 nM in data set [2] and 512 nM in data set [3].
For `COc1cccc2c1C(=O)c1c(O)c3c(c(O)c1C2=O)C[C@@](O)(C(=O)CO)C[C@@H]3O[C@H]1C[C@H](N)[C@H](O)[C@H](C)O1` [Doxorubicin, reference compound], the IC50 was 10200 nM in data set [1], 3880 nM in data set [2] and 35 nM in data set [3].
For the molecule `CN(C)CCN1C(=O)c2cccc3cc4ccc(O)cc4c(c23)C1=O` [*10-OH], the IC50 in data set [1] is over 27000 nM; in data set [2] it was 540 nM; in data set [3], 189 nM.
Turning to `CN1CCCC1CCN1C(=O)c2cccc3cc4ccccc4c(c23)C1=O` (centres unmarked) [2-(CH2)2-(1-methyl-2-pyrrolidinyl)], the IC50 was 7080 nM in data set [1], 56 nM in data set [2] and 51 nM in data set [3].
As for `CC(=O)Nc1ccc2cc3ccccc3c3c2c1C(=O)N(CCN(C)C)C3=O` [*4-NHCOCH3], the half-inhibitory concentration (IC50) was over 24300 nM in data set [1], 560 nM in data set [2] and 608 nM in data set [3].
For `Cc1ccc2cc3ccccc3c3c2c1C(=O)N(CCN(C)C)C3=O` [*4-CH3], the IC50 in data set [1] was 1360 nM; in data set [2], 68 nM; in data set [3], 54 nM.
With `Cc1c2ccccc2c2c3c(cccc13)C(=O)N(CCN(C)C)C2=O` [*7-CH3], the IC50 is 1680 nM in data set [1], 70 nM in data set [2] and 34 nM in data set [3].
Take `CCOc1c2ccccc2c2c3c(cccc13)C(=O)N(CCN(C)C)C2=O` [*7-OC2H5]: the IC50 in data set [1] is 5300 nM; in data set [2], 50 nM; in data set [3], 63 nM.
As for `Cc1ccc2c3c(c4ccccc4cc13)C(=O)N(CCN(C)C)C2=O` [*6-CH3], the concentration for half-maximal inhibition (IC50) in data set [1] was 989 nM; in data set [2] it was 27 nM; in data set [3], 7 nM.
Regarding `O=C1c2cccc3cc4ccccc4c(c23)C(=O)N1CCN1CCCC1` [2-(CH2)2N(CH2)4], the IC50 in data set [1] is 920 nM; in data set [2], 12 nM; in data set [3], 15 nM.
For `CN(C)c1ccc(N2C(=O)c3cccc4cc5ccccc5c(c34)C2=O)cc1` [2-(p-N(CH3)2)—C6H5)], the IC50 is 37300 nM in data set [1], 1790 nM in data set [2] and 187 nM in data set [3].
With `CN(C)CCN1C(=O)c2ccc(N)c3cc4ccccc4c(c23)C1=O` [*6-NH2], the IC50 in data set [1] is 1490 nM; in data set [2], 27 nM; in data set [3], 5 nM.
For `O=C1c2cccc3cc4ccccc4c(c23)C(=O)N1Cc1ccccn1` [2-CH2-2-pyridyl], the IC50 in data set [1] is over 25000 nM; in data set [2], 26700 nM; in data set [3] it was 26700 nM.
In the case of `Cc1ccc2cc3cccc4c3c(c2c1)C(=O)N(CCN(C)C)C4=O` [*10-CH3], the IC50 in data set [1] is 1000 nM; in data set [2] it was 54 nM; in data set [3], 41 nM.
On to `CNCCN1C(=O)c2ccc(OC)c3cc4ccccc4c(c23)C1=O` [2-(CH2)2NHCH3; 6-OCH3], for which the IC50 in data set [1] is 8100 nM; in data set [2], 27 nM; in data set [3] it was 41 nM.

As a reminder, the IC50 is the concentration at which inhibition is half-maximal.
